Publication PMC10584882 (Communications Biology, 2023)
Several values for one entry are separate records, joined by “and”; a condition that tells them apart may be missing. Equal entries are not always repeated.

Assays:
SARS-CoV-2 [1] = assay: Cytopathic effect inhibition assay in VERO-CCL81 cells; assay type: cell-based; settings: for CPE inhibition (%): VERO CCL81
human CatV = target: T1, human CatV (Homo sapiens, UniProt O60911); assay: Cathepsin inhibition test, CatV; assay type: biochemical; settings: Fig. S3 panel c, single replicates
T1 construct: made in house
T1 sequence (O60911 114-334): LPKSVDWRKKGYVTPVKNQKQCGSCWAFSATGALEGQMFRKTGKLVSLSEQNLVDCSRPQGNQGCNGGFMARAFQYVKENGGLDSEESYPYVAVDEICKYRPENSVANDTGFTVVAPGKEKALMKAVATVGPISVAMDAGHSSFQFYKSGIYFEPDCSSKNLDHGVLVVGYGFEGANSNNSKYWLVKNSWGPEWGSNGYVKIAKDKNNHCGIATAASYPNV

SARS-CoV-2 [2] = assay: Viral loading determination via RT-qPCR in LC-HK2 cells; assay type: cell-based; settings: for Viral titer (% control): LC-HK2, RT-qPCR
SARS-CoV-2-GFP = assay: microbe, parasite or virus in culture; assay type: cell-based; settings: Severe acute respiratory syndrome coronavirus 2, Vero C1008, mean with standard error, read-out: VERO E6 EC50
SARS-CoV-2 [3] = assay: Cytopathic effect inhibition assay in LC-HK2 cells; assay type: cell-based; settings: LC-HK2; 0.0000000001 μM; 1e-10 µM

CCCC[C@@H](C=O)NC(=O)[C@H](CC(C)C)NC(=O)OCc1ccccc1 [Calpeptin, reference compound]
inhibition at 0.3125 µM (SARS-CoV-2 [1]; Severe acute respiratory syndrome coronavirus 2, VERO CCL81, 0.3125 μM, two experiments, read-out: CPE inhibition (%)): 26.9%
inhibition at 0.625 µM (SARS-CoV-2 [1]; Severe acute respiratory syndrome coronavirus 2, VERO CCL81, 0.625 μM, two experiments, read-out: CPE inhibition (%)): 31.8%
inhibition at 1.25 µM (SARS-CoV-2 [1]; Severe acute respiratory syndrome coronavirus 2, VERO CCL81, 1.25 μM, two experiments, read-out: CPE inhibition (%)): 41.2%
inhibition at 2.5 µM (SARS-CoV-2 [1]; Severe acute respiratory syndrome coronavirus 2, VERO CCL81, 2.5 μM, two experiments, read-out: CPE inhibition (%)): 49.3%
inhibition at 5 µM (SARS-CoV-2 [1]; Severe acute respiratory syndrome coronavirus 2, VERO CCL81, 5 μM, two experiments, read-out: CPE inhibition (%)): 61.9%
inhibition at 10 µM (SARS-CoV-2 [1]; Severe acute respiratory syndrome coronavirus 2, VERO CCL81, 10 μM, two experiments, read-out: CPE inhibition (%)): 64.6%
EC50 (SARS-CoV-2 [1]; Severe acute respiratory syndrome coronavirus 2, VERO-CCL81, CellTiter-Glo, 48 h post-infection, read-out: CPE inhibition EC50): 400 nM
CPE inhibition (%) (SARS-CoV-2 [1]; 0.1563 μM, two experiments): 12.75% and 5.21%
CPE inhibition (%) (SARS-CoV-2 [1]; 0.3125 μM, two experiments): 21.14%
CPE inhibition (%) (SARS-CoV-2 [1]; 0.625 μM, two experiments): 29.81%
CPE inhibition (%) (SARS-CoV-2 [1]; 1.25 μM, two experiments): 49.13%
CPE inhibition (%) (SARS-CoV-2 [1]; 2.5 μM, two experiments): 33.89%
CPE inhibition (%) (SARS-CoV-2 [1]; 5 μM, two experiments): 61.52%
CPE inhibition (%) (SARS-CoV-2 [1]; 10 μM, two experiments): 53.9%
Residual activity (Vi/V0) (human CatV; inhibitor 0.010 nM, 10 pM): 0.7492 and 0.8662 and 0.9665 and 0.9783 and 1.034 and 0.8959 and 1.049 and 1.043
Residual activity (Vi/V0) (human CatV; inhibitor 0.018 nM, 18 pM): 1.426 and 1.071 and 0.8111 and 0.946 and 1.016 and 0.7983 and 1.052 and 1.107
Residual activity (Vi/V0) (human CatV; inhibitor 0.032 nM, 32 pM): 0.6155 and 0.7103 and 0.8989 and 0.8852 and 0.9741 and 0.7786 and 1.073 and 1.106
Residual activity (Vi/V0) (human CatV; inhibitor 0.058 nM, 58 pM): 0.4678 and 0.5573 and 0.8821 and 0.907 and 0.9499 and 0.7317 and 1.135 and 1.04
Residual activity (Vi/V0) (human CatV; inhibitor 0.105 nM, 0.000105 µM): 0.3395 and 0.4697 and 0.9391 and 1.0131 and 0.8776 and 0.5515 and 1.047 and 0.9299
Residual activity (Vi/V0) (human CatV; inhibitor 0.189 nM, 0.000189 µM): 0.2218 and 0.3638 and 0.7852 and 0.7629 and 0.7844 and 0.3361 and 0.9055 and 0.7253
Residual activity (Vi/V0) (human CatV; inhibitor 0.340 nM, 0.00034 µM): 0.127 and 0.1861 and 0.5926 and 0.6199 and 0.6546 and 0.1805 and 0.6841 and 0.4951
Residual activity (Vi/V0) (human CatV; inhibitor 0.612 nM, 0.000612 µM): 0.08315 and 0.0899 and 0.6171 and 0.6648 and 0.6032 and 0.1116 and 0.3127 and 0.292
Residual activity (Vi/V0) (human CatV; inhibitor 1.103 nM, 0.001103 µM): 0.07258 and 0.065 and 0.4015 and 0.4879 and 0.4441 and 0.08067 and 0.1763 and 0.1568
Residual activity (Vi/V0) (human CatV; inhibitor 1.985 nM, 0.001985 µM): 0.02995 and 0.03856 and 0.2299 and 0.2925 and 0.2801 and 0.03165 and 0.06168 and 0.07508
Residual activity (Vi/V0) (human CatV; inhibitor 3.572 nM, 0.003572 µM): 0.007933 and 0.009299 and 0.124 and 0.1265 and 0.09125 and 0.0154 and 0.02738 and 0.02841
Residual activity (Vi/V0) (human CatV; inhibitor 6.430 nM, 0.00643 µM): 0.0062 and 0.004492 and 0.03048 and 0.04147 and 0.02591 and 0.007404 and 0.008251 and 0.01699
Residual activity (Vi/V0) (human CatV; inhibitor 11.547 nM, 0.011547 µM): 0.001379 and -0.0006257 and 0.001045 and 0.01451
Viral titer (% control) (SARS-CoV-2 [2]; 0.0006 μM): 100 % control
Viral titer (% control) (SARS-CoV-2 [2]; 0.0012 μM): 100 % control
Viral titer (% control) (SARS-CoV-2 [2]; 0.0024 μM): 100 % control
Viral titer (% control) (SARS-CoV-2 [2]; 0.0049 μM): 100 % control
Viral titer (% control) (SARS-CoV-2 [2]; 0.0098 μM): 100 % control
Viral titer (% control) (SARS-CoV-2 [2]; 0.0195 μM): 100 % control
Viral titer (% control) (SARS-CoV-2 [2]; 0.0391 μM): 100 % control
Viral titer (% control) (SARS-CoV-2 [2]; 0.0781 μM): 100 % control
Viral titer (% control) (SARS-CoV-2 [2]; 0.1563 μM): 100 % control and 71.76 % control
Viral titer (% control) (SARS-CoV-2 [2]; 0.3125 μM): 77.19 % control and 100 % control
Viral titer (% control) (SARS-CoV-2 [2]; 0.625 μM): 85.89 % control and 100 % control
Viral titer (% control) (SARS-CoV-2 [2]; 1.25 μM): 75.06 % control and 100 % control
Viral titer (% control) (SARS-CoV-2 [2]; 100 μM): 0 % control
EC50 (SARS-CoV-2 [2]; Severe acute respiratory syndrome coronavirus 2, LC-HK2, RT-qPCR, 72 h post-infection, read-out: Viral titer EC50): 1700 nM
EC50 (SARS-CoV-2-GFP): 183 ± 65 nM
CPE inhibition (%) (SARS-CoV-2 [3]): 6.04%
